{"source": "patent US8138153B2", "about": "“Potassium channel modulator peptide” (National Centre for Biological Sciences, priority 2004, dated 2012)", "test_system": "K^+ currents (voltage dependent potassium channels) in DRG neurons", "type": "cell-based, Wistar rats"}
{"substance": "FHGGSWYRFPWGY-NH2 [Mo1659]", "values": [{"measurement": "Effect on fast transient K^+ current component", "value": "not significantly affected"}]}
